According to ChEMBL document CHEMBL5505985 (Eur J Med Chem, 2024):
The source made the active and inactive calls. No cut-off for these calls is given here.

What was measured:
Mus musculus [1] = assay: Antiinflammatory activity against DSS-induced ulcerative colitis BALB/c mouse assessed as amelioration of atrophied blood sinusoids at 0.25 mg/kg, po for 5 days and measured after 12 days; type: functional, organism-based; conditions: time 12.0 day
RAW264.7 [2] = assay: Inhibition of MAPK signalling pathway in LPS induced mouse RAW264.7 cells assessed as effect on p38 phosphorylation level at 10 to 30 uM preincubated for 1 hr followed by LPS stimulation and measured after 30 mins by Westernblot analysis; type: cell-based; conditions: dose 10-30 µM, time 1.5 hrs
RAW264.7 [3] = assay: Antiinflammatory activity in LPS-induced mouse RAW264.7 cells assessed as suppression of PGE2 secretion at 2 to 30 uM preincubated for 1 hr followed by LPS stimulation and measured after 24 hrs by ELISA method; type: functional, cell-based; conditions: dose 2-30 µM, time 25.0 hrs
[4] = biological target: T1, Prostaglandin G/H synthase 1 (Ovis aries, UniProt P05979); assay: Inhibition of sheep COX-1 using arachidonic acid as substrate pretreated for 5 mins followed by substrate addition and measured after 2 mins by fluorescence based analysis
T1 sequence (P05979 whole entry): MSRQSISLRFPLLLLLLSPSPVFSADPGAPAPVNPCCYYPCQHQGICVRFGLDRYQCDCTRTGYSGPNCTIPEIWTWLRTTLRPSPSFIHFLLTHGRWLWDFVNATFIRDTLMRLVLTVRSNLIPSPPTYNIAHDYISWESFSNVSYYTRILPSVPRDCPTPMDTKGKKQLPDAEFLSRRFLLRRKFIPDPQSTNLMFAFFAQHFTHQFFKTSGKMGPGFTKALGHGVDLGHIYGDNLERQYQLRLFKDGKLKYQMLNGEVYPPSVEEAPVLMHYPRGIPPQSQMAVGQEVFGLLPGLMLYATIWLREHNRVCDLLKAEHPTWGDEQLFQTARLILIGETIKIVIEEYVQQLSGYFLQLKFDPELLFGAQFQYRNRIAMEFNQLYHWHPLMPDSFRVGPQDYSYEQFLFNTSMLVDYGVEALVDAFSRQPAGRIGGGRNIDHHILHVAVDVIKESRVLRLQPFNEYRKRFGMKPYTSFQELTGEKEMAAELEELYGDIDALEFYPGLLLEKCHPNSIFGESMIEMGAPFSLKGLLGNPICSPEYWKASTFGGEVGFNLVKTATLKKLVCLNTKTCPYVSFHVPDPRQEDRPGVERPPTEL

[5] = biological target: NACHT, LRR and PYD domains-containing protein 3 (Mus musculus) (UniProt Q8R4B8); assay: Inhibition of NLRP3 inflammasome in LPS-induced mouse RAW264.7 cells assessed as downregulation of caspase-1 activation primed with LPS for 4.5 hs followed by incubation with compound for 1 hr and later stimulation with ATP for 30 mins by Western blot analysis; type: cell-based; conditions: dose 10-30 µM, time 1.5 hrs
Chain of NACHT, LRR and PYD domains-containing protein 3 (Mus musculus) (Q8R4B8 whole entry, the tested form may be a part): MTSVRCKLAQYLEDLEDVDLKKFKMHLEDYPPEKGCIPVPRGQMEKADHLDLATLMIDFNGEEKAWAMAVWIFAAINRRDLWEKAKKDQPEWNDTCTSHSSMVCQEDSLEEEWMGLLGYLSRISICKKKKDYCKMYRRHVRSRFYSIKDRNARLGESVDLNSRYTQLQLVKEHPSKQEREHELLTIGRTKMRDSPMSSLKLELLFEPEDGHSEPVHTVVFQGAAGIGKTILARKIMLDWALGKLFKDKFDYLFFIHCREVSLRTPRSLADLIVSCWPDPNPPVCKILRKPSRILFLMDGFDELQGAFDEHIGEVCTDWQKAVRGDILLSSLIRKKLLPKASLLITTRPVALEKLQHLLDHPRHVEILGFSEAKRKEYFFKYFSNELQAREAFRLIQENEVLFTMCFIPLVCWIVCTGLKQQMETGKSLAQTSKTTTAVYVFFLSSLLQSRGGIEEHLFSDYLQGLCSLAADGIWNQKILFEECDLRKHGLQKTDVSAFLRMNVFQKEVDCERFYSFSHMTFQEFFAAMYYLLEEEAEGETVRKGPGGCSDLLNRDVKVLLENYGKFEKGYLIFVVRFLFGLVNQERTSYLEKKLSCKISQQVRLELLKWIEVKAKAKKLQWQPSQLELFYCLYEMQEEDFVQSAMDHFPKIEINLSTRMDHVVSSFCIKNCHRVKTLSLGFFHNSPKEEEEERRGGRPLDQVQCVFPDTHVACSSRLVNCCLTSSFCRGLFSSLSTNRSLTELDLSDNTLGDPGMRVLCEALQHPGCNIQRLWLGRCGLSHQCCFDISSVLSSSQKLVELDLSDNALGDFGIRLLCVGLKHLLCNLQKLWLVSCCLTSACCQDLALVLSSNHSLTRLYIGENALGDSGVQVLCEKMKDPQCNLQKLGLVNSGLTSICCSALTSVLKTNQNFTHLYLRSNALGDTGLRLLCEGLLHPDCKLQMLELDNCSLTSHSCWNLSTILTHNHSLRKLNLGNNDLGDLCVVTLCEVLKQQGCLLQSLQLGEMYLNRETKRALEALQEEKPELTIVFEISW

RAW264.7 [6] = assay: Cytotoxicity activity mouse RAW264.7 cells assessed as reduction in cell viability at 10 uM incubated for 48 hrs by MTT assay; type: toxicity, cell-based; conditions: raw264.7, 48 h
RAW264.7 [7] = assay: Antiinflammatory activity in LPS-induced mouse RAW264.7 cells assessed as downregulation of TNF-alpha secretion preincubated for 1 hr followed by LPS stimulation and measured after 3 hrs by ELISA method; type: functional, cell-based; conditions: dose 2-30 µM, time 4.0 hrs
RAW264.7 [8] = assay: Inhibition of MAPK signalling pathway in LPS induced mouse RAW264.7 cells assessed as effect on JNK phosphorylation level at 10 to 30 uM preincubated for 1 hr followed by LPS stimulation and measured after 30 mins by Westernblot analysis; type: cell-based; conditions: dose 10-30 µM, time 1.5 hrs
[9] = biological target: T2, Prostaglandin G/H synthase 2 (Homo sapiens, UniProt P35354); assay: Inhibition of human recombinant COX-2 using arachidonic acid as substrate pretreated for 5 mins followed by substrate addition and measured after 2 mins by fluorescence based analysis
T2 sequence (P35354 whole entry): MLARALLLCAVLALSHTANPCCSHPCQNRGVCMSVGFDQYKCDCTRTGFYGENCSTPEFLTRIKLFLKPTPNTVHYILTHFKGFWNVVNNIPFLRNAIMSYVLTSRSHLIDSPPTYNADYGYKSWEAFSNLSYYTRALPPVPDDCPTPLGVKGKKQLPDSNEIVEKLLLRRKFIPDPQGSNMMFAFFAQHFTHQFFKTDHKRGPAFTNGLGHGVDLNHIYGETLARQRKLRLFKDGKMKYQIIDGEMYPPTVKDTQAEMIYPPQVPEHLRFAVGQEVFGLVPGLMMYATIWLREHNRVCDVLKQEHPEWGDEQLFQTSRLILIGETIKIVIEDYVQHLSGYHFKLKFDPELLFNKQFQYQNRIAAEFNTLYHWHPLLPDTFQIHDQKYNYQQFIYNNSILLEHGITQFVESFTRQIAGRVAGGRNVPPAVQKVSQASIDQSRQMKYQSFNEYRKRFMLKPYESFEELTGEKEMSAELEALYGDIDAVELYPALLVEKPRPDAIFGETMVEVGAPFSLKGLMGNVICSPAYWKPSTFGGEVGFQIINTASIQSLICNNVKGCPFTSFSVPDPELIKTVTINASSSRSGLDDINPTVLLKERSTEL

Mus musculus [10] = assay: Protection against DSS-induced ulcerative colitis BALB/c mouse assessed as recovery of cell matrix development at 0.25 mg/kg, po for 5 days and measured after 12 days by H and E staining based analysis; type: functional, organism-based; conditions: time 12.0 day
[11] = Selectivity index, ratio of IC50 for ovine COX-1 to IC50 for human COX-2
Mus musculus [12] = assay: Antiinflammatory activity against DSS-induced ulcerative colitis BALB/c mouse assessed as suppression of weight loss at 0.25 mg/kg, po for 5 days and measured on day 10; type: functional, organism-based; conditions: time 10.0 day
Mus musculus [13] = assay: Antiinflammatory activity against DSS-induced ulcerative colitis BALB/c mouse assessed as amelioration of leucocyte infiltration at 0.25 mg/kg, po for 5 days and measured after 12 days; type: functional, organism-based; conditions: time 12.0 day
RAW264.7 [14] = assay: Antiinflammatory activity in LPS-induced mouse RAW264.7 cells assessed as inhibition of NO secretion preincubated for 1 hr followed by LPS stimulation and measured after 24 hrs by Griess assay; type: functional, cell-based; conditions: dose 2-30 µM, time 25.0 hrs
RAW264.7 [15] = assay: Inhibition of LPS-induced NFkappaB activation in mouse RAW264.7 cells assessed as reduction in NF-kappaB phosphorylation level preincubated for 1 hr followed by LPS stimulation and measured after 30 mins by Westernblot analysis; type: cell-based; conditions: dose 10-30 µM, time 1.5 hrs
RAW264.7 [16] = assay: Inhibition of LPS-induced NFkappaB activation in mouse RAW264.7 cells assessed as inhibition of IkappaBalpha phosphorylation level preincubated for 1 hr followed by LPS stimulation and measured after 30 mins by Westernblot analysis; type: cell-based; conditions: dose 10-30 µM, time 1.5 hrs
Mus musculus [17] = assay: Antiinflammatory activity against DSS-induced ulcerative colitis BALB/c mouse assessed as reduction in DAI score at 0.25 mg/kg, po for 5 days and measured after 12 days; type: functional, organism-based; conditions: time 12.0 day
[18] = biological target: NACHT, LRR and PYD domains-containing protein 3 (Mus musculus) (UniProt Q8R4B8); assay: Inhibition of NLRP3 inflammasome in LPS-induced mouse RAW264.7 cells assessed as reduction in NLRP3 activation at 10 to 30 uM primed with LPS for 4.5 hs followed by incubation with compound for 1 hr and later stimulation with ATP for 30 mins by Western blot analysis; type: cell-based; conditions: dose 10-30 µM, time 1.5 hrs
RAW264.7 [19] = assay: Antiinflammatory activity in LPS-induced mouse RAW264.7 cells assessed as reduction in iNOS protien level at 10 uM preincubated for 1 hr followed by LPS stimulation and measured after 24 hrs […]; type: functional, cell-based; conditions: time 25.0 hrs

- IC50 [4]: 26.3 µM
- inhibition [5]: Dose-Dependent Effect
- IC50 [9]: 1.53 µM
- Ratio IC50 [11]: 17.2
- inhibition [18]: Active
Compound: COc1ccccc1C1=Nn2c(Cc3ccccc3Nc3c(Cl)cccc3Cl)nnc2SC1
- Activity (Mus musculus [1]): Active
- inhibition (RAW264.7 [2]): inactive
- Activity (RAW264.7 [3]): Active
- Activity (RAW264.7 [6]): Non-Toxic
- Activity (RAW264.7 [7]): Dose-Dependent Effect
- inhibition (RAW264.7 [8]): inactive
- Activity (Mus musculus [10]): Active
- Activity (Mus musculus [12]): Active
- Activity (Mus musculus [13]): Active
- Activity (RAW264.7 [14]): Dose-Dependent Effect
- inhibition (RAW264.7 [15]): Dose-Dependent Effect
- inhibition (RAW264.7 [16]): Dose-Dependent Effect
- Activity (Mus musculus [17]): Active
- Activity (RAW264.7 [19]): Active
